Results: article PMC10590383, “Repurposing conformational changes in ANL superfamily enzymes to rapidly generate biosensors for organic and amino acids” (Nature Communications, 2023)

Legend:
[1] = target: T1, GECFINDER-Ile2 (Bacillus licheniformis, UniProt O68006); test: Fluorescence dose-response of purified cpEGFP sensors (0.75 uM) in 100 mM Tris-HCl pH 7.5, room temperature, 1 mM ATP, 2.5 mM MgCl2; excitation 400, 460 or 480 nm by sensor, emission 510 nm; logistic five-parameter fit.; format: biochemical; settings: n = 3
T1 construct: gene bacA; BacA-IleA-PCP; cpEGFP inserted, linkers RY-PG
T1 sequence (O68006 1-632 N218D): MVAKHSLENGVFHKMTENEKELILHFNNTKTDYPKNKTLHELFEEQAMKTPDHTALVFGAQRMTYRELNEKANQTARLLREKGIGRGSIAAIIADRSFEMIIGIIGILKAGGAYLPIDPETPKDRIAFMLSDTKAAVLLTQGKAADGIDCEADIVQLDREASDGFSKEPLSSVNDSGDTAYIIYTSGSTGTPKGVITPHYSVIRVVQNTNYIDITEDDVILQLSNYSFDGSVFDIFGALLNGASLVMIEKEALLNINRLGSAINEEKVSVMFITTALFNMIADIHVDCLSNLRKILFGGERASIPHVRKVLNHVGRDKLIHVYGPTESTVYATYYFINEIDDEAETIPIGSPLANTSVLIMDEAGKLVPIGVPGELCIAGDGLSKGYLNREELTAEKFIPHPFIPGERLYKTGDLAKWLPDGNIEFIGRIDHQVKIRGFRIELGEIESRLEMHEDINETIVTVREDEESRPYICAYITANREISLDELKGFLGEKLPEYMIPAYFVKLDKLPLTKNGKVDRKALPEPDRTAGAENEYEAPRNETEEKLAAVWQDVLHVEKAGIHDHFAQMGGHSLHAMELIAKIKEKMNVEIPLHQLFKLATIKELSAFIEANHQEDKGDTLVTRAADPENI
Experimental: (§1) Fig. 3 Dose–response curves and fluorescence spectrums of […]s. a, c, e, g, i, k Dose–response curve of purified […]s with increasing concentrations of ligand in 100 mM Tris-HCl buffer (pH=7.5). The normalized ΔF/F0 value increased after ligand binding. All data shown are mean ± S.D. (n = 3 biologically independent samples). b, d, f, h, j, l The fluorescence spectra of […]s changed as the ligand concentration increased. All data shown are mean ± S.D. (n = 3 biologically independent samples). Source data are provided as a Source data file.
(§2) The study conducted dose–response curve, substrate specificity, and fluorescent spectrum analyses in 100-mM Tris buffer (pH = 7.5), while pH stability experiments were performed in 100-mM Tris buffer at three different pH values (6.5, 7.5, and 8.5) at room temperature. […] protein at a concentration of 0.75 μM, various small molecule concentrations, 1 mM ATP, and 2.5 mM MgCl2 were used in the experiments. Fluorescent signals were detected using a Microplate Reader (Synergy H4, Bio Tek) at an excitation/emission wavelength of 460 nm/510 nm or 480 nm/510 nm. The dose-response curve was determined immediately after the addition of the analyte. The total duration of the measurement was 15 min, with readings taken at one-minute intervals. The dose-response curve was plotted using the fluorescence values obtained after achieving stability in the fluorescence signal. The dose-response curves were fitted using the logistic model LOGISTIC5 available in Origin 2021, which could provide a more adequate fit to asymmetric dose-response data[62],[63]. Excitation spectra were scanned from 300 to 540 nm with a step size of 5 nm, and the emission wavelength was set to 560 nm. Emission spectra were scanned from 470 to 700 nm with a step size of 5 nm, and the excitation wavelength was set to 450 nm. The thermal stability of […] was analyzed using the UNcle multifunctional protein stability analysis system. Measurements were performed in 20 mM MOPS buffer with 2 mM DTT at a sample concentration of 1 mg/mL. Absolute fluorescence quantum yields were measured using an absolute photoluminescence quantum yield spectrometer (FS5, Edinburgh).

[2] = target: T2, GECFINDER-Ile1 (Bacillus licheniformis, UniProt O68006); test: as above; format: biochemical; settings: n = 3
T2 construct: gene bacA; BacA-IleA-PCP; cpEGFP inserted, linkers VY-CA
T2 sequence (O68006 1-632 N218D): as above
Experimental: as §1, §2

[3] = target: T3, GECFINDER-Ile3 (Bacillus licheniformis, UniProt O68006); test: as above; format: biochemical; settings: n = 3
T3 construct: gene bacA; BacA-IleA-PCP; cpEGFP inserted, linkers VY-LS
T3 sequence (O68006 1-632 N218D): as above
Experimental: as §1, §2

[4] = Dependence of […]s on Mg2+ and ATP (fluorescence intensity); format: biochemical; settings: ATP +
Excerpt: Ligand specificity is an important biosensors feature. Generally, the NRPS A domains have high specificity for their substrates because they are the first “gatekeeper” of NRPSs and ensure that the correct monomers are activated and thioesterified[32],[33]. […] Twenty proteinogenic amino acids were used to test the ligand specificity of […]s. […] We also investigated the dependence of […]s on Mg^2+ and ATP (Supplementary Fig. 4).
Supplementary Fig. 4 Dependence of GEC FINDER s on Mg2+ and ATP . a-j, Fluore scence intensities of
GECF IN DERs in the absence of any substra te, in the pre sence of Mg2+ alone, ATP alone, both Mg2+ and ATP, Mg2+
and ATP with re spective substra tes. Mg2+ concentra tion was 2.5 mM, and ATP concentra tion was 1 mM. a, 100 μM
data are provided as a Source Data file.

[5] = test system: At4CL2; settings: ATP Km of At4CL2, homolog of Nt4CL2; cited from earlier work
[6] = target: T4, GECFINDER-ATP (Bacillus subtilis, UniProt P39845); test: Fluorescence dose-response of purified […]-ATP with ATP as the varied ligand (10 nM to 2 mM), 100 mM Tris pH 7.5, room temperature, excitation/emission 480/510 nm.; format: biochemical; settings: n = 3
T4 construct: gene ppsA; PpsA-GluA A domain; LE-cpEGFP-TR inserted between Asp425 and Asp426 in hinge A
T4 sequence (P39845 434-960): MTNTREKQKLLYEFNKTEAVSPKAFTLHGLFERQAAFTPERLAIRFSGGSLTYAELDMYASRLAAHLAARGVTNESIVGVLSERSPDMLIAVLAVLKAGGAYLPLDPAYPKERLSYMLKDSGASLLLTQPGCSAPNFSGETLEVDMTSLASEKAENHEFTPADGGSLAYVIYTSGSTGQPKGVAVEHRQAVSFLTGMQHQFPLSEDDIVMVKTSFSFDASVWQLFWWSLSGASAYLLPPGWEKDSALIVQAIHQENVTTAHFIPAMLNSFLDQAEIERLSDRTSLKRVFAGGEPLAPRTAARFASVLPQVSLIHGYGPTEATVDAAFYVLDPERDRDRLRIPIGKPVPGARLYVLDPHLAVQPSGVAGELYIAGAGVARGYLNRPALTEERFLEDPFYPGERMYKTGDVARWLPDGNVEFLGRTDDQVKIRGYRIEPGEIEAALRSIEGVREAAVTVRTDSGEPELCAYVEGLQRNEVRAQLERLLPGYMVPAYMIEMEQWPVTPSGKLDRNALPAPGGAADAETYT
Experimental: as §2, with “Excitation spectra were scanned from 300 to 540 nm with a step size of 5 nm, and the emission wavelength was set to 560 nm. Emission spectra were scanned from 470 to 700 nm with a step size of 5 nm, and the excitation wavelength was set to 450 nm.” left out, “Measurements were performed in 20 mM MOPS buffer with 2 mM DTT at a sample concentration of 1 mg/mL.” left out, “Edinburgh). […]” for “Edinburgh).”

[7] = test system: GrsA-Phe A domain; settings: Km for ATP of GrsA-Phe A domain; cited from earlier work
[8] = target: T5, GECFINDER-His1 (Bacillus licheniformis, UniProt O68008); test: Fluorescence dose-response of purified cpEGFP sensors (0.75 uM) in 100 mM Tris-HCl pH 7.5, room temperature, 1 mM ATP, 2.5 mM MgCl2; excitation 400, 460 or 480 nm by sensor, emission 510 nm; logistic five-parameter fit.; format: biochemical; settings: n = 3
T5 construct: gene bacC; BacC-HisA-PCP; cpEGFP inserted, linkers GA-HC
T5 sequence (O68008 2956-3585): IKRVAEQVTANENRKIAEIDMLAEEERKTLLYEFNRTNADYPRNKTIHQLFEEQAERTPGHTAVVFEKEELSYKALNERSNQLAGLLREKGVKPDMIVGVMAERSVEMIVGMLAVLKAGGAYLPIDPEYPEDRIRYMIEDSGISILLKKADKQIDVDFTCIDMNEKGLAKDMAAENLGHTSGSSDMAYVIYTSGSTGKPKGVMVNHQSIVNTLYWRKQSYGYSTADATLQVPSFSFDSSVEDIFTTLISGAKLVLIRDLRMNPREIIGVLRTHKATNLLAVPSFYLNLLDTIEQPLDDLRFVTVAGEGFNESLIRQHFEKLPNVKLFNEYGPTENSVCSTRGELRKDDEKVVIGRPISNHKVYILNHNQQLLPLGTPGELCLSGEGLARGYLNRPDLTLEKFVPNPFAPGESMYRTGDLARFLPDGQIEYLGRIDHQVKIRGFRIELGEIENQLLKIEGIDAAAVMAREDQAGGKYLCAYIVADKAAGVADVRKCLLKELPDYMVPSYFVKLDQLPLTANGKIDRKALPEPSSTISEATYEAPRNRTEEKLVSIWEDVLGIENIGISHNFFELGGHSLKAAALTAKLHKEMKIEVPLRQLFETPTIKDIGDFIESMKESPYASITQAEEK
Experimental: as §1, §2

[9] = target: T6, GECFINDER-His2 (Bacillus licheniformis, UniProt O68008); test: as above; format: biochemical; settings: n = 3
T6 construct: gene bacC; BacC-HisA-PCP; cpEGFP inserted, linkers GG-PV
T6 sequence (O68008 2956-3585): as above
Experimental: as §1, §2

[10] = target: T7, GECFINDER-4CA (Nicotiana tabacum, UniProt O24146); test: as above; format: biochemical; settings: n = 3
T7 construct: gene 4CL2; cpEGFP with fixed linkers (LE-cpEGFP-TR) inserted between Leu439 and Ile440 in hinge A of Nt4CL2
T7 sequence (O24146 2-542): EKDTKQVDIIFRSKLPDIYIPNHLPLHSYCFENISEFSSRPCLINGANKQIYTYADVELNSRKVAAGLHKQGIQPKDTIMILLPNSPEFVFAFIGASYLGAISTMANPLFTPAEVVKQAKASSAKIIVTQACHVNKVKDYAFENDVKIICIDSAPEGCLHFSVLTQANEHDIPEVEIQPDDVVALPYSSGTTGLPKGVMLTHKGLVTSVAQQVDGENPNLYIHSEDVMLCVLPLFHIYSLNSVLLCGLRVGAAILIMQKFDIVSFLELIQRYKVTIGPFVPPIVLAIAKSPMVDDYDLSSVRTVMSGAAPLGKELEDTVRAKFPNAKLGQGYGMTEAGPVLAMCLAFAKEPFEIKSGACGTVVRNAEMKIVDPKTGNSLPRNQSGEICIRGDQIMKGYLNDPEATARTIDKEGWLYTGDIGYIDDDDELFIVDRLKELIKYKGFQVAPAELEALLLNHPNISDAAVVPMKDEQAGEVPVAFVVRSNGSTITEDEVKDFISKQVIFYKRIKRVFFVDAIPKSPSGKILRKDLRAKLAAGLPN
Experimental: as §1, §2

[11] = Fluorescence spectra / excitation wavelength scan of […]s; format: physicochemical; settings: Wavelength 300 nm
Experimental: (§3) Fig. 3 Dose–response curves and fluorescence spectrums of […]s. a, c, e, g, i, k Dose–response curve of purified […]s with increasing concentrations of ligand in 100 mM Tris-HCl buffer (pH=7.5). […] All data shown are mean ± S.D. (n = 3 biologically independent samples). Source data are provided as a Source data file.
as §2

[12] = Dose–response curve of purified […] with 4-coumaric acid; format: biochemical
Experimental: as §3
The study conducted dose–response curve, substrate specificity, and fluorescent spectrum analyses in 100-mM Tris buffer (pH = 7.5), while pH stability experiments were performed in 100-mM Tris buffer at three different pH values (6.5, 7.5, and 8.5) at room temperature. […] Fluorescent signals were detected using a Microplate Reader (Synergy H4, Bio Tek) at an excitation/emission wavelength of 460 nm/510 nm or 480 nm/510 nm. The dose-response curve was determined immediately after the addition of the analyte. The total duration of the measurement was 15 min, with readings taken at one-minute intervals. The dose-response curve was plotted using the fluorescence values obtained after achieving stability in the fluorescence signal. […] Excitation spectra were scanned from 300 to 540 nm with a step size of 5 nm, and the emission wavelength was set to 560 nm. Emission spectra were scanned from 470 to 700 nm with a step size of 5 nm, and the excitation wavelength was set to 450 nm. The thermal stability of […] was analyzed using the UNcle multifunctional protein stability analysis system. Measurements were performed in 20 mM MOPS buffer with 2 mM DTT at a sample concentration of 1 mg/mL. Absolute fluorescence quantum yields were measured using an absolute photoluminescence quantum yield spectrometer (FS5, Edinburgh).

## CC[C@H](C)[C@H](N)C(=O)O [Ile, isoleucine]
[1]
  EC50: 221 ± 66.3 µM
[2]
  EC50: 161 ± 32.1 µM
[3]
  EC50: 186 ± 61 µM

## Nc1ncnc2c1ncn2[C@@H]1O[C@H](COP(=O)(O)OP(=O)(O)OP(=O)(O)O)[C@@H](O)[C@H]1O [ATP, adenosine triphosphate]
[4]; Supplementary Fig. 4 a, Mg+ +, 4-coumaric acid -
  fluorescence intensity, AVE of 3 repeats: 2171.67
[4]; Supplementary Fig. 4 a, Mg+ -, 4-coumaric acid -
  fluorescence intensity, AVE of 3 repeats: 2266.67
[4]; Supplementary Fig. 4 b, Mg+ +, phenylalanine -
  fluorescence intensity, AVE of 3 repeats: 9194
[4]; Supplementary Fig. 4 b, Mg+ -, phenylalanine -
  fluorescence intensity, AVE of 3 repeats: 7173.67
[4]; Supplementary Fig. 4 c, Mg+ +, glutamine -
  fluorescence intensity, AVE of 3 repeats: 17330.3
[4]; Supplementary Fig. 4 c, Mg+ -, glutamine -
  fluorescence intensity, AVE of 3 repeats: 17083
[4]; Supplementary Fig. 4 e, Mg+ +, isoleucine -
  fluorescence intensity, AVE of 3 repeats: 12985
[4]; Supplementary Fig. 4 e, Mg+ -, isoleucine -
  fluorescence intensity, AVE of 3 repeats: 12174.7
[4]; Supplementary Fig. 4 f, Mg+ +, histidine -
  fluorescence intensity, AVE of 3 repeats: 25974
[4]; Supplementary Fig. 4 f, Mg+ -, histidine -
  fluorescence intensity, AVE of 3 repeats: 26138.3
[4]; Supplementary Fig. 4 g, Mg+ +, leucine -
  fluorescence intensity, AVE of 3 repeats: 7346.67
[4]; Supplementary Fig. 4 g, Mg+ -, leucine -
  fluorescence intensity, AVE of 3 repeats: 6910.33
[4]; Supplementary Fig. 4 i, Mg+ +, tyrosine -
  fluorescence intensity, AVE of 3 repeats: 5938.67
[4]; Supplementary Fig. 4 i, Mg+ -, tyrosine -
  fluorescence intensity, AVE of 3 repeats: 5712
[4]; Supplementary Fig. 4 j, Mg+ +, phenylalanine -
  fluorescence intensity, AVE of 3 repeats: 7465
[4]; Supplementary Fig. 4 j, Mg+ -, phenylalanine -
  fluorescence intensity, AVE of 3 repeats: 7633
[4]; Supplementary Fig. 4 h, Mg+ +, S-β-phenylalanine -
  fluorescence intensity, AVE of 3 repeats: 5374.33
[4]; Supplementary Fig. 4 h, Mg+ -, S-β-phenylalanine -
  fluorescence intensity, AVE of 3 repeats: 5014
[4]; Supplementary Fig. 4 d, Mg+ +, proline -
  fluorescence intensity, AVE of 3 repeats: 50889
[4]; Supplementary Fig. 4 d, Mg+ -, proline -
  fluorescence intensity, AVE of 3 repeats: 46119
[5]
  Km: 163 µM
[6]
  EC50: 69.3 ± 4.69 µM
[7]
  Km: 150 µM

## N[C@@H](Cc1c[nH]cn1)C(=O)O [His, histidine]
[8]
  EC50: 10.4 ± 4.74 µM
[9]
  EC50: 13.2 ± 4.26 µM

## O=C(O)/C=C/c1ccc(O)cc1 [4-coumaric acid]
[10]
  EC50: 1.03 ± 0.06 µM
[4]; Supplementary Fig. 4 a, Mg+ +, 4-coumaric acid +
  fluorescence intensity, AVE of 3 repeats: 3682.33
[11]; 0.001 μM 4-coumaric acid
  Wavelength scan, AVE of Repeat 1-3 (Fig. 3 b): 368
[11]; 2.5 μM 4-coumaric acid
  Wavelength scan, AVE of Repeat 1-3 (Fig. 3 b): 388.333
[11]; 250 μM 4-coumaric acid
  Wavelength scan, AVE of Repeat 1-3 (Fig. 3 b): 108.667
[12]; 4-coumaric acid 0.001 μM
  Dose-response, AVE of Repeat 1-3 (Fig. 3 a): 0
[12]; 4-coumaric acid 0.01 μM
  Dose-response, AVE of Repeat 1-3 (Fig. 3 a): 0.02925
[12]; 4-coumaric acid 0.25 μM
  Dose-response, AVE of Repeat 1-3 (Fig. 3 a): 0.1354
[12]; 4-coumaric acid 0.5 μM
  Dose-response, AVE of Repeat 1-3 (Fig. 3 a): 0.2537
[12]; 4-coumaric acid 2.5 μM
  Dose-response, AVE of Repeat 1-3 (Fig. 3 a): 0.5733
[12]; 4-coumaric acid 5 μM
  Dose-response, AVE of Repeat 1-3 (Fig. 3 a): 0.6689
[12]; 4-coumaric acid 25 μM
  Dose-response, AVE of Repeat 1-3 (Fig. 3 a): 0.7533
[12]; 4-coumaric acid 50 μM
  Dose-response, AVE of Repeat 1-3 (Fig. 3 a): 0.7561
[12]; 4-coumaric acid 250 μM
  Dose-response, AVE of Repeat 1-3 (Fig. 3 a): 0.7978
[12]; 4-coumaric acid 500 μM
  Dose-response, AVE of Repeat 1-3 (Fig. 3 a): 0.7717
[12]; 4-coumaric acid 2500 μM
  Dose-response, AVE of Repeat 1-3 (Fig. 3 a): 0.8533
[12]; 4-coumaric acid 5000 μM
  Dose-response, AVE of Repeat 1-3 (Fig. 3 a): 0.8286
